Where only a bound is given, the exact number is not on record here.

The record followed here is patent publication US12655150B2 (Cedilla Therapeutics, Inc., priority 2021, dated 2026).

For one test, the system named is NCI-H226. The test is described as follows: 72H TEAD Proliferation Assay (Cell Titer Glo 2.0). The note with it: CTG 2.0, cell line not given (NCI-H226 responsive, NCI-H28 non-responsive). It counts as cell-based. The procedure, abridged: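 NF2-deficient NCI-H226 mesothelioma cells, TEAD-dependent, treated 72 h; NF2-wild-type NCI-H28 serves as the TEAD-independent counter-screen for off-target cytotoxicity. Viable cells quantified by CellTiter-Glo 2.0 luminescence; background and time-zero signal subtracted, GI50 from nonlinear dose-response fit.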
By GI50 is commonly meant the concentration giving 50% growth inhibition. Read a low GI50 as greater sensitivity of the cells. In turn, `COc1cc(-c2ccc(C(F)(F)F)cc2)nc2cc(C(=O)N3CCC3CO)ccc12` (single isomer, unassigned) [I-373, (2-(hydroxymethyl)azetidin-1-yl) (4-methoxy-2-(4-(trifluoromethyl)phenyl)quinolin-7-yl)methanone] gave a GI50 not above 1000 nM.
Consider `CC(C)(C)c1ccc(-c2nc3cc(S(C)(=N)=O)ccc3n3cccc23)cc1` (single isomer, unassigned) [I-209, (4-(4-(tert-Butyl)phenyl)pyrrolo[1,2-a]quinoxalin-7-yl)(imino)(methyl)-16-sulfanone], for which the concentration for 50% growth inhibition (GI50) was 5000 to 10000 nM.

The test is the same for the next values; noted with them: Homo sapiens, NCI-H226, 72 h, CTG 2.0, cell line not given (NCI-H226 responsive, NCI-H28 non-responsive).
As to `COC[C@H](C)NC(=O)c1ccc2c(C)cc(-c3ccc(C(F)(F)F)cc3)nc2c1` [I-263, (S)—N-(1-methoxypropan-2-yl)-4-methyl-2-(4-(trifluoromethyl)phenyl)quinoline-7-carboxamide], the GI50 was not above 1000 nM.
Still for that read-out and setting: the same measure for `O=C(O)c1ccc2c(-c3cnco3)cc(-c3ccc(C(F)(F)F)cc3)nc2c1` [I-389, 4-(oxazol-5-yl)-2-(4-(trifluoromethyl)phenyl)quinoline-7-carboxylic acid]: not above 1000 nM.
As to `C=C(F)C(=O)NCc1nc(-c2ccc(C(F)(F)F)cc2)c2cccnc2n1` [I-307, 2-fluoro-N-((4-(4-(trifluoromethyl)phenyl)pyrido[2,3-d]pyrimidin-2-yl)methyl)acrylamide], the GI50 was not above 1000 nM.
`O=C(O)c1ccc2c(OC3CC3)cc(-c3ccc(C(F)(F)F)cc3)nc2c1` [I-395, 4-cyclopropoxy-2-(4-(trifluoromethyl)phenyl)quinoline-7-carboxylic acid] gave a GI50 not above 1000 nM.
Still for that read-out and setting: the same measure for `Cc1cc(-c2ccc(OC(F)(F)F)cc2)nc2cc(C(=O)O)ccc12` [I-256, 4-methyl-2-(4-(trifluoromethoxy)phenyl)quinoline-7-carboxylic acid]: 1000 to 5000 nM.
On the same count and under the same terms, the result for `CC(C)(C)c1ccc(-c2ncc3ccc(C(=O)O)cn23)cc1` [I-145, 3-(4-(tert-Butyl)phenyl)imidazo[1,5-a]pyridine-6-carboxylic acid] reads more than 10000 nM; that for `CC1(C)CC2(CCN(c3nc4cc(C(=O)O)ccc4n4cccc34)CC2)CO1` [I-34, 4-(3,3-Dimethyl-2-oxa-8-azaspiro [4.5]decan-8-yl) pyrrolo[1,2-a] quinoxaline-7-carboxylic acid], more than 10000 nM; that for `COCC(C)CC(=O)N1CCc2c(cccc2-c2ccc(C(F)(F)F)cc2)C1` (centres unmarked) [I-137, 4-Methoxy-3-methyl-1-(5-(4-(trifluoromethyl)phenyl)-3,4-dihydroisoquinolin-2(1H)-yl)butan-1-one], 1000 to 5000 nM.
Compound `O=C(O)c1ccc2c(OCC3CC3)cc(-c3ccc(C(F)(F)F)cc3)nc2c1` [I-375, 4-(cyclopropylmethoxy)-2-(4-(trifluoromethyl)phenyl)quinoline-7-carboxylic acid] had a GI50 not above 1000 nM.
The same measure, in the same setting: the result for `C=CC(=O)NCc1cn2cnnc2c(-c2ccc(C(F)(F)F)cc2)n1` [I-317, N-((8-(4-(trifluoromethyl)phenyl)-[1,2,4]triazolo[4,3-a]pyrazin-6-yl)methyl)acrylamide] reads 1000 to 5000 nM.
`C=CC(=O)NCc1cn2ncnc2c(-c2ccc(C(F)(F)F)cc2)n1` [I-236, N-((8-(4-(Trifluoromethyl)phenyl)-[1,2,4]triazolo[1,5-a]pyrazin-6-yl)methyl)acrylamide] had a GI50 not above 1000 nM.
Take `O=C(O)c1ccc2c(c1)nc(N1CCCC1)c1cccn12` [I-15, 4-(Pyrrolidin-1-yl)pyrrolo[1,2-a]quinoxaline-7-carboxylic acid]: the GI50 is more than 10000 nM.
Still for that read-out and setting: the same measure for `C=CC(=O)NCc1nc2ncccn2c1-c1ccc(C(F)(F)F)cc1` [I-410, N-((3-(4-(trifluoromethyl)phenyl)imidazo[1,2-a]pyrimidin-2-yl)methyl)acrylamide]: not above 1000 nM.
As for `O=C(O)c1ccc2c(c1)nc(-c1c(Cl)cc(C(F)(F)F)cc1Cl)c1cccn12` [I-201, 4-(2,6-Dichloro-4-(trifluoromethyl)phenyl)pyrrolo[1,2-a]quinoxaline-7-carboxylic acid], the GI50 lay in the range of 5000 to 10000 nM.
Same read-out and setting: the same measure for `Cc1cnc(-c2nc3cc(C(=O)O)ccc3n3cccc23)nc1` [I-129, 4-(5-Methylpyrimidin-2-yl)pyrrolo[1,2-a]quinoxaline-7-carboxylic acid]: 1000 to 5000 nM.
Same read-out and setting: the same measure for `CC(C)(C)C#Cc1nc2cc(C(=O)O)ccc2n2cccc12` [I-118, 4-(3,3-Dimethylbut-1-yn-1-yl)pyrrolo[1,2-a]quinoxaline-7-carboxylic acid]: more than 10000 nM.
The compound `COc1cc(-c2ccc(C(F)(F)F)cc2)nc2cc(C(=O)N[C@@H](CO)c3ccccn3)ccc12` [I-365, (R)—N-(2-hydroxy-1-(pyridin-2-yl)ethyl)-4-methoxy-2-(4-(trifluoromethyl)phenyl)quinoline-7-carboxamide] gave a GI50 not above 1000 nM.
Same read-out and setting: the result for `CC(C)(C)c1ccc(-c2nc3cc(C(N)=O)ccc3n3cccc23)cc1` [I-166, 4-(4-(tert-butyl)phenyl)pyrrolo[1,2-a]quinoxaline-7-carboxamide] reads not above 1000 nM; that for `CC[C@H](CO)NC(=O)c1ccc2c(C3CC3)cc(-c3ccc(C(F)(F)F)cc3)nc2c1` [I-399, (R)-4-cyclopropyl-N-(1-hydroxybutan-2-yl)-2-(4-(trifluoromethyl)phenyl)quinoline-7-carboxamide], not above 1000 nM; that for `COc1cc(-c2ccc(C(F)(F)F)cc2)nc2cc(C(=O)O)ccc12` [I-181, 4-methoxy-2-(4-(trifluoromethyl)phenyl)quinoline-7-carboxylic acid], not above 1000 nM.
On the same count and under the same terms, the result for `C=CC(=O)Nc1ccc2ccc(-c3ccc(C(C)(C)C)cc3)nc2c1` [I-106, N-(2-(4-(tert-butyl)phenyl)quinolin-7-yl)acrylamide] reads 1000 to 5000 nM.
The same measure, in the same setting: the same measure for `COc1cc(-c2ccc(C(F)(F)F)cc2)nc2cc(C(=O)N[C@@H](CO)c3ccc(O)cc3)ccc12` [I-363, (R)—N-(2-hydroxy-1-(4-hydroxyphenyl)ethyl)-4-methoxy-2-(4-(trifluoromethyl)phenyl)quinoline-7 carboxamide]: not above 1000 nM; for `C=C(F)C(=O)NCc1cc2ccccc2c(-c2ccc(C(C)(C)C)cc2)n1` [I-215, N-((1-(4-(tert-butyl)phenyl)isoquinolin-3-yl)methyl)-2-fluoroacrylamide]: not above 1000 nM; for `CC(C)(C)c1ccc(-c2nc3cc(-c4nnn[nH]4)ccc3n3ccnc23)cc1` [I-76, 4-(4-(tert-Butyl)phenyl)-7-(1H-tetrazol-5-yl)imidazo[1,2-a]quinoxaline]: more than 10000 nM.
For `C=CC(=O)NCc1cn2ccnc2c(-c2ccc(F)cc2)n1` [I-110, N-((8-(4-fluorophenyl)imidazo[1,2-a]pyrazin-6-yl)methyl)acrylamide], the GI50 was in the range of 1000 to 5000 nM.
Same read-out and setting: the same measure for `CC(C)C1CCN(c2nc3cc(C(=O)O)ccc3n3cccc23)CC1` [I-12, 4-(4-Isopropylpiperidin-1-yl)pyrrolo[1,2-a]quinoxaline-7-carboxylic acid]: 1000 to 5000 nM; for `C[C@H](CO)NC(=O)c1ccc2ccc(-c3ccc(C(F)(F)F)cc3)nc2c1` [I-427, (R)—N-(1-hydroxypropan-2-yl)-2-(4-(trifluoromethyl)phenyl)quinoline-7-carboxamide]: 1000 to 5000 nM.
The same measure, in the same setting: the same measure for `Cc1ccc(-c2nc3cc(C(=O)O)ccc3n3cccc23)cc1` [I-45, 4-(p-Tolyl)pyrrolo[1,2-a]quinoxaline-7-carboxylic acid]: more than 10000 nM; for `CC1(C)C2CN(c3nc4cc(C(=O)O)ccc4n4cccc34)CC21` (centres unmarked) [I-31, 4-(6,6-Dimethyl-3-azabicyclo[3.1.0]hexan-3-yl)pyrrolo[1,2-a]quinoxaline-7-carboxylic acid]: more than 10000 nM.
Regarding `C=CC(=O)NCc1nc(-c2ccc(C(F)(F)F)cc2)n2cccnc12` [I-438, N-((6-(4-(trifluoromethyl)phenyl)imidazo[1,5-a]pyrimidin-8-yl)methyl)acrylamide], the GI50 was in the range of 1000 to 5000 nM.
The same measure, in the same setting: the same measure for `CC(C)Oc1cc(-c2ccc(C(F)(F)F)cc2)nc2cc(C(=O)O)ccc12` [I-394, 4-isopropoxy-2-(4-(trifluoromethyl)phenyl)quinoline-7-carboxylic acid]: not above 1000 nM; for `C=CC(=O)Nc1ncc2c(ccn2-c2ccc(C(C)(C)C)cc2)n1` [I-100, N-(5-(4-(tert-butyl)phenyl)-5H-pyrrolo[3,2-d]pyrimidin-2-yl)acrylamide]: 5000 to 10000 nM.
Compound `O=C(O)c1ccc2c(c1)nc(N1CCC(C(F)(F)F)CC1)c1cccn12` [I-38, 4-(4-(Trifluoromethyl)piperidin-1-yl)pyrrolo[1,2-a]quinoxaline-7-carboxylic acid] gave a GI50 of more than 10000 nM.
On the same count and under the same terms, the result for `CC(C)(C)c1ccc(-c2ncn3cc(C(=O)O)ccc23)cc1` [I-144, 1-(4-(tert-Butyl)phenyl)imidazo[1,5-a]pyridine-6-carboxylic acid] reads more than 10000 nM.
Still for that read-out and setting: the same measure for `CC(C)(C)c1ccc(-c2cnc3ccc(C(=O)O)cc3n2)cc1` [I-157, 3-(4-(tert-Butyl)phenyl)quinoxaline-6-carboxylic acid]: more than 10000 nM.
Compound `COc1cc(-c2ccc(C(F)(F)F)cc2)nc2cc(C(=O)NC(C)(C)CO)ccc12` [I-352, N-(1-hydroxy-2-methylpropan-2-yl)-4-methoxy-2-(4-(trifluoromethyl)phenyl)quinoline-7-carboxamide] had a GI50 of 1000 to 5000 nM.
In the case of `COc1cccc([C@H](C)NC(=O)c2ccc3c(C)cc(-c4ccc(C(F)(F)F)cc4)nc3c2)c1` [I-268, (S)—N-(1-(3-methoxyphenyl)ethyl)-4-methyl-2-(4-(trifluoromethyl)phenyl)quinoline-7-carboxamide], the GI50 is not above 1000 nM.
On the same count and under the same terms, the result for `O=C(O)c1ccc2c(C3CC3)cc(-c3ccc(C(F)(F)F)cc3)nc2c1` [I-387, 4-cyclopropyl-2-(4-(trifluoromethyl)phenyl)quinoline-7-carboxylic acid] reads not above 1000 nM; that for `COCC(C)OC(=O)N1CCc2c(cccc2-c2ccc(C(F)(F)F)cc2)C1` (centres unmarked) [I-79, 1-Methoxypropan-2-yl 5-(4-(trifluoromethyl)phenyl)-3,4-dihydroisoquinoline-2(1H)-carboxylate], 1000 to 5000 nM.
